# Numbers after ± are expanded uncertainties.
# Assay: activity coefficient (dimensionless); of the first substance listed, at infinite dilution; xn = mol fraction of the nth substance listed
# Conditions: 101.33 kPa, Liquid, Chromatography, x1 = 0
Compound,activity coefficient (328.15 K),activity coefficient (338.15 K),activity coefficient (348.15 K),activity coefficient (358.15 K),activity coefficient (368.15 K),activity coefficient (378.15 K),activity coefficient (318.15 K)
O [water] + CCCCCCCCCCCC[N+](C)(C)CCOc1ccccc1.N#C[N-]C#N,0.467 ± 0.036,0.479 ± 0.037,0.489 ± 0.037,0.5 ± 0.04,0.51 ± 0.038,0.52 ± 0.039,
CC#N [acetonitrile] + CCCCCCCCCCCC[N+](C)(C)CCOc1ccccc1.O=S(=O)([N-]S(=O)(=O)C(F)(F)F)C(F)(F)F,0.489 ± 0.037,0.506 ± 0.038,0.523 ± 0.039,0.539 ± 0.039,0.555 ± 0.04,,0.473 ± 0.037
C#CCCCCCC [1-octyne] + CCCCCCCCCCCC[N+](C)(C)CCOc1ccccc1.N#C[N-]C#N,2.22 ± 0.15,2.34 ± 0.16,2.46 ± 0.17,2.57 ± 0.17,2.68 ± 0.18,2.8 ± 0.19,
